Series [1] is described as follows: Solubility by HPLC relative to a reference sample. To be noted: aqueous buffer, phosphate buffer, at the pH given. Format: physicochemical. The procedure: The evaluation of the solubility of the compounds of the invention is carried out at pH 4 (using a phosphate buffer, […]) by HPLC using an H2O/CH3CN/CH3SO3H gradient, relative to a reference sample (a dilute solution of the product to be evaluated which serves as an internal control). The solubility S results are expressed in mg/ml. Generally, the compounds of the present invention have a solubility S≧4 mg/ml at pH≧4. Among them, mention may be made of the solubilities of the following compounds in the table below: […]

The structures appear in SMILES notation. In brackets after ≈: the same amount, converted by molar mass. Where a name gives a salt, the structure may show the parent alone.

For `CCc1cc2cc(C(=O)N3CCNC(=O)C3)ccn2c1C(=O)c1ccc(CCCNC(C)(C)C)cc1` [compound 38, 4-{3-[4-(3-tert-Butylaminopropyl)benzoyl]-2-ethylindolizine-7-carbonyl}piperazin-2-one], the melting point (commonly the temperature of the solid-liquid transition) came out at 122 °C.

`CCN(Cc1nnn(C)n1)C(=O)c1ccn2c(C(=O)c3ccc(CCCNC(C)(C)C)cc3)c(C)cc2c1` [compound 78, 3-[4-(3-tert-Butylaminopropyl)benzoyl]-2-methylindolizine-7-carboxylic acid ethyl(2-methyl-2H-tetrazol-5-ylmethyl)amide]: the melting point worked out at 153 °C.

The compound `CCc1cc2cc(C(=O)OCc3nnn(C)n3)ccn2c1C(=O)c1ccc(CCCNC(C)(C)C)cc1` [compound 49, 3-[4-(3-tert-Butylaminopropyl)benzoyl]-2-ethylindolizine-7-carboxylic acid 2-methyl-2H-tetrazol-5-ylmethyl ester] gave a melting point of 203 °C.

As to `CCc1cc2cc(C(=O)N(CC)Cc3nnn(C)n3)ccn2c1C(=O)c1ccc(CCC(C)(C)NC(C)(C)C)cc1` (as salt: hydrochloride) [Compound No. 18, 3-[4-(3-tert-Butylamino-3-methylbutyl)benzoyl]-2-ethylindolizine-7-carboxylic acid ethyl(2-methyl-2H-tetrazol-5-ylmethyl)amide], the melting point stood at 122 °C.

The compound `CCc1cc2cc(C(=O)N(CC)Cc3cnn(C)c3)ccn2c1C(=O)c1ccc(CCCNC(C)(C)C)cc1` [compound 45, 3-[4-(3-tert-Butylaminopropyl)benzoyl]-2-ethylindolizine-7-carboxylic acid ethyl(1-methyl-1H-pyrazol-4-ylmethyl)amide] had a melting point of 173 °C.

`CCc1cc2cc(C(=O)N(CC(=O)OC)C(C)C)ccn2c1C(=O)c1ccc(CCC(C)(C)NC2CCCC2)cc1` (as salt: hydrochloride) [Compound No. 19, ({3-[4-(3-Cyclopentylamino-3-methylbutyl)benzoyl]-2-ethylindolizine-7-carbonyl}isopropylamino)acetic acid methyl ester] showed a melting point of 245 °C.

`CCc1cc2cc(C(=O)N(CC)Cc3nnn(C)n3)ccn2c1C(=O)c1ccc(CCCNC(C)(C)C)cc1` (as salt: hydrochloride) [Compound No. 17, 3-[4-(3-tert-Butylaminopropyl)benzoyl]-2-ethylindolizine-7-carboxylic acid ethyl(2-methyl-2H-tetrazol-5-ylmethyl)amide] yielded a melting point of 172 °C.

Take `CCc1cc2cc(C(=O)N(CC)Cc3ccn(C)n3)ccn2c1C(=O)c1ccc(CCCNC(C)(C)C)cc1` [compound 44, 3-[4-(3-tert-Butylaminopropyl)benzoyl]-2-ethylindolizine-7-carboxylic acid ethyl(1-methyl-1H-pyrazol-3-ylmethyl)amide]: the melting point came to 149 °C.

`CCc1cc2cc(C(=O)N(CC)Cc3cc(C)on3)ccn2c1C(=O)c1ccc(CCCNC(C)(C)C)cc1` [compound 46, 3-[4-(3-tert-Butylaminopropyl)benzoyl]-2-ethylindolizine-7-carboxylic acid ethyl(5-methylisoxazol-3-ylmethyl)amide] showed a melting point of 175 °C. For the same compound, in series [1], the solubility – broadly, the dissolved amount per volume that the medium holds – turned out to be 1730 µg/mL (≈ 3.27 mM).

With `CCCCc1cc2cc(C(=O)N(CC)CC)ccn2c1C(=O)c1ccc(C2CCNCC2)cc1` [compound 66, 2-Butyl-3-(4-piperidin-4-yl-benzoyl) indolizine-7-carboxylic acid diethylamide], the melting point was determined as 149.6 °C.

`CCc1cc2cc(C(=O)O[C@H]3CNC(=O)C3)ccn2c1C(=O)c1ccc(CCCNC(C)(C)C)cc1` [compound 52, 3-[4-(3-tert-Butylaminopropyl)benzoyl]-2-ethylindolizine-7-carboxylic acid (R)-5-oxopyrrolidin-3-yl ester] registered a melting point of 162 °C.

For `CCOCCN(CC)C(=O)c1ccn2c(C(=O)c3ccc(CCCNC4CCCC4)cc3)c(CC)cc2c1` [compound 37, 3-[4-(3-Cyclopentylaminopropyl)benzoyl]-2-ethylindolizine-7-carboxylic acid (2-ethoxyethyl)ethylamide], the melting point amounted to 146.4 °C.

As to `CCN(Cc1nnn(C)n1)C(=O)c1ccn2c(C(=O)c3ccc(CCCNC(C)(C)C)cc3)c(C3CCC3)cc2c1` [compound 42, 3-[4-(3-tert-Butylaminopropyl)benzoyl]-2-cyclobutylindolizine-7-carboxylic acid ethyl(2-methyl-2H-tetrazol-5-ylmethyl)amide], the melting point turned out to be 195 °C.

`CCc1cc2cc(C(=O)N3CCNC(=O)CC3)ccn2c1C(=O)c1ccc(CCCNC2CCCC2)cc1` [compound 53, 1-{3-[4-(3-Cyclopentylaminopropyl)benzoyl]-2-ethylindolizine-7-carbonyl}[1,4]diazepam-5-one] returned a melting point of 176 °C. The solubility in series [1] was 6930 µg/mL (≈ 13.5 mM).

`CCN[C@@H](CCc1ccc(C(=O)c2c(CC)cc3cc(C(=O)N(CC)Cc4nnn(C)n4)ccn23)cc1)C(C)C` (as salt: hydrochloride) [Compound No. 20, 2-Ethyl-3-[4-((S)-3-ethylamino-4-methylpentyl)benzoyl]indolizine-7-carboxylic acid ethyl(2-methyl-2H-tetrazol-5-ylmethyl)amide]: the melting point was 100 °C.

The record behind these values is patent publication US20130245006A1, “NOVEL INDOLIZINE DERIVATIVES, AND PREPARATION AND THERAPEUTIC USE THEREOF” (SANOFI, priority 2010, published 2013).
